Common to all, as to type: functional, cell-based
In test [1] the target is T1, Taste receptor type 2 member 7 (Homo sapiens) (UniProt Q9NYW3).
T1 sequence (whole entry): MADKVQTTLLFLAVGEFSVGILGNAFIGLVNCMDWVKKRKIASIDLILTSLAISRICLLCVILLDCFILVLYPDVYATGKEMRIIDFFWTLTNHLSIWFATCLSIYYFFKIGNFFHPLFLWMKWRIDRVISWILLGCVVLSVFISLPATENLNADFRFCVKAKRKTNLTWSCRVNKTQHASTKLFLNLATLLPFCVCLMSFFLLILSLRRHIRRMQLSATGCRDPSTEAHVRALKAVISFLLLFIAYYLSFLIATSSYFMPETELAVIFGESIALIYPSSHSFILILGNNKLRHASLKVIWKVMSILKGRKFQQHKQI
The experiment in a line: Agonist activity at N-terminal rat ST3 receptor-fused full length human TAS2R7 transiently expressed in HEK293T cells co-expressing Galpha16gust44 assessed as increase in intracellular calcium level by measuring deltaF/F0 ratio level at 0.16 mM by Fluo-4AM dye based FLIPR assay. In general terms: Calcium flux is commonly read through the fluorescence of an indicator in the cells.

The target of test [2] is T1, Taste receptor type 2 member 7 (Homo sapiens). Briefly: Agonist activity at N-terminal rat ST3 receptor-fused full length human TAS2R7 transiently expressed in HEK293T cells co-expressing Galpha16gust44 assessed as increase in intracellular calcium level by measuring deltaF/F0 ratio level at 0.65 mM by Fluo-4AM dye based FLIPR assay.
For test [3] the target is unchanged. Briefly: Agonist activity at N-terminal rat ST3 receptor-fused full length human TAS2R7 transiently expressed in HEK293T cells co-expressing Galpha16gust44 assessed as increase in intracellular calcium level by measuring deltaF/F0 ratio level at 0.02 mM by Fluo-4AM dye based FLIPR assay.
The target is the same in test [4]. Briefly: Agonist activity at N-terminal rat ST3 receptor-fused full length human TAS2R7 transiently expressed in HEK293T cells co-expressing Galpha16gust44 assessed as increase in intracellular calcium level by measuring deltaF/F0 ratio level at 0.01 mM by Fluo-4AM dye based FLIPR assay.
The target is the same in test [5]. Briefly: Agonist activity at N-terminal rat ST3 receptor-fused full length human TAS2R7 transiently expressed in HEK293T cells co-expressing Galpha16gust44 assessed as increase in intracellular calcium level by measuring deltaF/F0 ratio level at 1.3 mM by Fluo-4AM dye based FLIPR assay.
For test [6] the target is unchanged. The experiment in a line: Agonist activity at N-terminal rat ST3 receptor-fused full length human TAS2R7 stably expressed in HEK293T cells co-expressing Galpha16gust44 assessed as increase in intracellular calcium level by measuring deltaF/F0 ratio level at 0.02 mM by Fluo-4AM dye based FLIPR assay (reference value: 0.08 +/- 0.03).
Test [7] has the same target. The experiment in a line: Agonist activity at N-terminal rat ST3 receptor-fused full length human TAS2R7 transiently expressed in HEK293T cells co-expressing Galpha16gust44 assessed as increase in intracellular calcium level by measuring deltaF/F0 ratio level at 2.60 mM by Fluo-4AM dye based FLIPR assay.
Test [8] has the same target. Briefly: Agonist activity at N-terminal rat ST3 receptor-fused full length human TAS2R7 stably expressed in HEK293T cells co-expressing Galpha16gust44 assessed as increase in intracellular calcium level by measuring deltaF/F0 ratio level at 2.60 mM by Fluo-4AM dye based FLIPR assay (reference value: 0.65 +/- 0.13).
Test [9] has the same target. Briefly: Agonist activity at N-terminal rat ST3 receptor-fused full length human TAS2R7 transiently expressed in HEK293T cells co-expressing Galpha16gust44 assessed as increase in intracellular calcium level by measuring deltaF/F0 ratio level by Fluo-4AM dye based FLIPR assay.
For test [10] the target is unchanged. The experiment in a line: Agonist activity at N-terminal rat ST3 receptor-fused full length human TAS2R7 stably expressed in HEK293T cells co-expressing Galpha16gust44 assessed as increase in intracellular calcium level by measuring deltaF/F0 ratio level at 0.08 mM by Fluo-4AM dye based FLIPR assay (reference value: 0.1 +/- 0.04).
The target is the same in test [11]. The experiment in a line: Agonist activity at N-terminal rat ST3 receptor-fused full length human TAS2R7 stably expressed in HEK293T cells co-expressing Galpha16gust44 assessed as increase in intracellular calcium level by measuring deltaF/F0 ratio level at 0.33 mM by Fluo-4AM dye based FLIPR assay (reference value: 0.34 +/- 0.06).
Test [12] shares this target. The experiment in a line: Agonist activity at N-terminal rat ST3 receptor-fused full length human TAS2R7 transiently expressed in HEK293T cells co-expressing Galpha16gust44 assessed as increase in intracellular calcium level by measuring deltaF/F0 ratio level at 0.08 mM by Fluo-4AM dye based FLIPR assay.
The target is the same in test [13]. The experiment in a line: Agonist activity at N-terminal rat ST3 receptor-fused full length human TAS2R7 transiently expressed in HEK293T cells co-expressing Galpha16gust44 assessed as increase in intracellular calcium level by measuring deltaF/F0 ratio level at 0.04 mM by Fluo-4AM dye based FLIPR assay.
The target is the same in test [14]. The experiment in a line: Agonist activity at N-terminal rat ST3 receptor-fused full length human TAS2R7 stably expressed in HEK293T cells co-expressing Galpha16gust44 assessed as increase in intracellular calcium level by measuring deltaF/F0 ratio level at 0.16 mM by Fluo-4AM dye based FLIPR assay (reference value: 0.15 +/- 0.06).
Test [15] shares this target. The experiment in a line: Agonist activity at N-terminal rat ST3 receptor-fused full length human TAS2R7 stably expressed in HEK293T cells co-expressing Galpha16gust44 assessed as increase in intracellular calcium level by measuring deltaF/F0 ratio level at 0.01 mM by Fluo-4AM dye based FLIPR assay (reference value: 0.09 +/- 0.04).
Test [16] has the same target. Briefly: Agonist activity at N-terminal rat ST3 receptor-fused full length human TAS2R7 stably expressed in HEK293T cells co-expressing Galpha16gust44 assessed as increase in intracellular calcium level by measuring deltaF/F0 ratio level at 1.3 mM by Fluo-4AM dye based FLIPR assay (reference value: 0.53 +/- 0.1).
For test [17] the target is unchanged. The experiment in a line: Agonist activity at N-terminal rat ST3 receptor-fused full length human TAS2R7 stably expressed in HEK293T cells co-expressing Galpha16gust44 assessed as increase in intracellular calcium level by measuring deltaF/F0 ratio level at 0.04 mM by Fluo-4AM dye based FLIPR assay (reference value: 0.08 +/- 0.03).
Test [18] has the same target. The experiment in a line: Agonist activity at N-terminal rat ST3 receptor-fused full length human TAS2R7 stably expressed in HEK293T cells co-expressing Galpha16gust44 assessed as increase in intracellular calcium level by measuring deltaF/F0 ratio level at 0.65 mM by Fluo-4AM dye based FLIPR assay (reference value: 0.41 +/- 0.14).
The target is the same in test [19]. The experiment in a line: Agonist activity at N-terminal rat ST3 receptor-fused full length human TAS2R7 transiently expressed in HEK293T cells co-expressing Galpha16gust44 assessed as increase in intracellular calcium level by measuring deltaF/F0 ratio level at 0.33 mM by Fluo-4AM dye based FLIPR assay.

`CC(C)[C@@H]1CC[C@@H](C)C[C@H]1O`: the Ratio in [1] is 0.15; in [2], 0.41; in test [3], 0.08; in [4] it was 0.09; in test [5], 0.53; in [6], 0.09. In addition, the Ratio turned out to be 0.65 in [7]; 0.92 in [8]; 0.12 in test [10]; 0.61 in test [11]; 0.1 in test [12]; 0.08 in [13]. Moreover, the Ratio in test [14] is 0.23; in test [15], 0.09; in [16] it was 1.16; in test [17], 0.13; in [18] it was 1.03; in test [19], 0.34. The Activity entry in test [9] is “Dose-dependent effect”.

With `CC(C)[C@H]1CC[C@H](C)C[C@@H]1O`, the Activity result in test [9] is “Dose-dependent effect”.

The record behind these values is ChEMBL document CHEMBL4482301, “Methods to identify modulators” (2012).
